Reference: publication PMC11322525, “Dihydrolipoamide dehydrogenase (DLD) is a novel molecular target of bortezomib” (Cell Death & Disease, 2024)

Tests used:
[1] = molecular target: T1, DLD (dihydrolipoamide dehydrogenase) (Homo sapiens, UniProt P09622); assay: microscale thermophoresis; assay type: binding; details: unmodified bortezomib; His-tag RED-tris-NTA labelled protein; unit not given
T1 construct: recombinant, customized by DetaiBio; His-tag labelling (RED-tris-NTA) for MST implies His tag
T1 sequence (P09622 36-509): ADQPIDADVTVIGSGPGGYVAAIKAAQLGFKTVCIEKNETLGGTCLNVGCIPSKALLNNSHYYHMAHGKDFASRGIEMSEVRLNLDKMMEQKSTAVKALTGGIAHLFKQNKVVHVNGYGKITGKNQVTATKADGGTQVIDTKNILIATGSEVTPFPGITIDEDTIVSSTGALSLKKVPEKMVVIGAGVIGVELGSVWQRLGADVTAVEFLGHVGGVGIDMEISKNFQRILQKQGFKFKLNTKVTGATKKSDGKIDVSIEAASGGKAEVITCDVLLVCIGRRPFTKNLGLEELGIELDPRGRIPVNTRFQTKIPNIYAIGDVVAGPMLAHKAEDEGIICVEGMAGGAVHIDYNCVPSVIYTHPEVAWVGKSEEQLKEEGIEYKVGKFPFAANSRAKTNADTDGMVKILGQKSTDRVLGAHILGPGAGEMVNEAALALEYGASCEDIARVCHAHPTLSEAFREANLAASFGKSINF

PSMB5 = molecular target: T2, PSMB5 (Homo sapiens, UniProt P28074); assay: microscale thermophoresis; assay type: binding; details: unmodified bortezomib; positive control (protein of the control panel not named in the legend); isolated recombinant subunit
T2 construct: recombinant isolated subunit, customized by DetaiBio; His-tag labelling for MST implies His tag
T2 sequence (P28074 60-263): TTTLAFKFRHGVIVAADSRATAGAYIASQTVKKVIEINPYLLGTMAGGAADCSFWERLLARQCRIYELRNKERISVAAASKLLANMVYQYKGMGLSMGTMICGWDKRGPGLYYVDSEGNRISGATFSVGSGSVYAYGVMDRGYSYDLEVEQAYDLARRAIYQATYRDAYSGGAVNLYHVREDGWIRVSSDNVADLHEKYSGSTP

- KD [1]: 1.38 ± 0.51 E-7
SMILES: CC(C)C[C@H](NC(=O)[C@H](Cc1ccccc1)NC(=O)c1cnccn1)B(O)O [bortezomib]
- KD (PSMB5): binding affinity of BTZ to DLD and to PSMB5
